Experimental data as given in patent US20100184815A1 (priority 2008, published 2010).

Experiments:
Type in all cases: cell-based
Gal-4 hPPARα = biological target: T1, Gal-4 hPPARα (Homo sapiens, UniProt Q07869); test: Gal4-hPPARα transient transfection reporter assay in Cos cells; conditions: luciferase reporter, 24 hours with compound, scale 1-5, read-out: Gal-4 hPPAR α EC50 (scaled number)
T1 construct: Plasmids pGal4-hPPARα, pGal4-hPPARγ, pGal4-hPPARδ and pG5-TK-pGL3 were constructed as previously described by Staels, Bart, et al., Nature 1998 Jun; 25
T1 sequence (Q07869 200-468 limits assumed): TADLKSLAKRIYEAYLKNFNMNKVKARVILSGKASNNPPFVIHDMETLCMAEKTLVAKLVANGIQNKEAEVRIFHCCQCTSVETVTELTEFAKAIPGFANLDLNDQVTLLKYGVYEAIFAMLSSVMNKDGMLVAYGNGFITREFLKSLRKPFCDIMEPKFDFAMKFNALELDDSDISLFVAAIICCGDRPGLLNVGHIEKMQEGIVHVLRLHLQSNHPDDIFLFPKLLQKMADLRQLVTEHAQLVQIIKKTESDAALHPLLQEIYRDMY
Method in brief: (§1)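 Cos cells transiently co-transfected with Gal4-hPPAR expression plasmid, pG5-TK-pGL3 luciferase reporter and β-galactosidase control, then treated 24 h with increasing compound concentrations in DMEM containing 0.2% FCS. Luciferase normalised to β-galactosidase; EC50 from curve fit, at least three experiments.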

Gal-4 hPPARγ = biological target: T2, Gal-4 hPPARγ (Homo sapiens, UniProt P37231); test: Gal4-hPPARγ transient transfection reporter assay in Cos cells; conditions: luciferase reporter, 24 hours with compound, scale 1-5, read-out: Gal-4 hPPAR γ EC50 (scaled number)
T2 construct: Plasmids pGal4-hPPARα, pGal4-hPPARγ, pGal4-hPPARδ and pG5-TK-pGL3 were constructed as previously described by Staels, Bart, et al., Nature 1998 Jun; 25
T2 sequence (P37231 238-505 limits assumed): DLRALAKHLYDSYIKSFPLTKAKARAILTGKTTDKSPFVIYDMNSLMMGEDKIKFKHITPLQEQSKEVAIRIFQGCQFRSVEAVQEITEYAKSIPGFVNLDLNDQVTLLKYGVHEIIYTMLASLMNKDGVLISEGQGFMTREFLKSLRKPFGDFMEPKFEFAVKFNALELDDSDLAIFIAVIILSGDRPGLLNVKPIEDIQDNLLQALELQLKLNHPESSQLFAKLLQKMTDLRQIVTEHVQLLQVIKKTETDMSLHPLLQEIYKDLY
Method in brief: as §1

Full Length hPPARα = biological target: T3, Full Length hPPARα (Homo sapiens, UniProt Q07869); test: Full length hPPARα transfection assay; conditions: full length receptor; read-out: Full Length hPPAR α EC50 (scaled number)
T3 construct: Full Length; expressed in transfected cells; host or cells: Cos cells
T3 sequence (Q07869 1-468): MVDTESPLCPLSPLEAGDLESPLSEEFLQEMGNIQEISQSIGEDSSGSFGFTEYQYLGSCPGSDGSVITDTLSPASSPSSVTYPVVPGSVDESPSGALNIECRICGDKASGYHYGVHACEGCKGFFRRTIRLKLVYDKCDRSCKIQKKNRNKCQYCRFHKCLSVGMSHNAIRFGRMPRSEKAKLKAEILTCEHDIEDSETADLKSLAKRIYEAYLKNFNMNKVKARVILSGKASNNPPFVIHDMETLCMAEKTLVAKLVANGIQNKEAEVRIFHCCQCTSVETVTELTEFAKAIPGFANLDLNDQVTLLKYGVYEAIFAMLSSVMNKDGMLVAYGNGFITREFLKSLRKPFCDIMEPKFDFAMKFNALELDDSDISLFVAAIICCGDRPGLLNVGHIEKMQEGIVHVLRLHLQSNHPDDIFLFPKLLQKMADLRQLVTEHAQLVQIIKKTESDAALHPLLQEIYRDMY
Protocol: (§2) Transient transfection assays. Cos cells were seeded in 60-mm dishes at a density of 5.5×10^5 cells/dish in Dulbecco's modified Eagle's medium (DMEM) supplemented with 10% fetal calf serum (FCS) and incubated at 37° C. for 24 hours before transfection. Cells were transfected in Opti-MEM (Gibco; Invitrogen, Carlsbad, Calif.) without FCS for 3 hours at 37° C., using polyethylenimine, with reporter and expression plasmids. The plasmid pBluescript (Stratagene, La Jolla, Calif.) was used as carrier DNA to set the final amount of DNA to 5.5 μg/dish. The pCMV-b-galactosidase expression plasmid was cotransfected as a control for transfection efficiency. Transfection was stopped by the addition of DMEM supplemented with 10% FCS, and cells were then incubated at 37° C. After 16 hours, cells were trypsinized and seeded in 96-well plates at the density of 2×10^4 cells/well and incubated for 6 hours in 10% FCS-containing DMEM. Cells were then incubated for 24 hours in DMEM containing 0.2% FCS and increasing concentrations of the compound tested or vehicle (DMSO). At the end of the experiment, cells were washed once with ice-cold PBS, lysed and the luciferase and b-galactosidase assays were performed in a luminometer and spectrophotomer. Transfection efficiencies were normalized with the b-galactosidase activity assay. Half-maximal effective concentration (EC50) was estimated using Prism software (GraphPad). All transfection experiments were performed at least three times.
(§3) In the following tables, proprietary compound EC50 values for hPPAR α, β, δ and γ are shown. The EC50 value is the concentration of a drug that induces a response halfway between the baseline and maximum, and is commonly used as a measure of drug potency. EC50 values are reported on a scale of 1 through 5, wherein the value scale is defined for each receptor as follows: […]

Full Length hPPARγ = biological target: T4, Full Length hPPARγ (Homo sapiens, UniProt P37231); test: Full length hPPARγ transfection assay; conditions: full length receptor; scale 1-5; read-out: Full Length hPPAR γ EC50 (scaled number)
T4 construct: Full Length; expressed in transfected cells; host or cells: Cos cells
T4 sequence (P37231 1-505): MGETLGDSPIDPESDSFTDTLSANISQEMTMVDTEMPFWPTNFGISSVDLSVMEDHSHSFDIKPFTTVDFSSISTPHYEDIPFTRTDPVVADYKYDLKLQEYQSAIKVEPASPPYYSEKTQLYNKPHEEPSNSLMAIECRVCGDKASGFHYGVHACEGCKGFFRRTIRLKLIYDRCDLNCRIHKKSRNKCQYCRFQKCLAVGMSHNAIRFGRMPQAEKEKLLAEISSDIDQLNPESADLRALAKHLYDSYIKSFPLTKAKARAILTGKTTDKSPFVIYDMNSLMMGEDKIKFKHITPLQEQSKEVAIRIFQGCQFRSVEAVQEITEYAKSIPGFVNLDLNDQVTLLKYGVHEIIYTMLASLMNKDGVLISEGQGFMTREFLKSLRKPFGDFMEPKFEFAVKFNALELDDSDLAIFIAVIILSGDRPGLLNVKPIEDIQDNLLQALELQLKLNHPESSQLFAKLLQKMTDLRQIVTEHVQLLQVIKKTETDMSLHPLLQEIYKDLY
Protocol: as §2, §3

| SMILES | EC50 (Gal-4 hPPARα) [nM] | EC50 (Gal-4 hPPARγ) [nM] | EC50 (Full Length hPPARα) [nM] | EC50 (Full Length hPPARγ) [nM] |
| --- | --- | --- | --- | --- |
| CCCCCCCCn1c(COC(=O)c2ccc(SC(C)(C)C(=O)O)cc2)nn(Cc2ccc(C)cc2)c1=O [Compound 161, 2-methyl-2-(4-(((1-(4-methylbenzyl)-4-octyl-5-oxo-4,5-dihydro-1H-1,2,4-triazol-3-yl)methoxy)carbonyl)phenylthio)propanoic acid] | 1 to 50 | 51 to 200 | < 1 | 201 to 999 |
| CCCCCCCCn1c(COC(=O)c2ccc(OC(C)(C)C(=O)O)c(OC)c2)nn(Cc2ccc(C)cc2)c1=O [Compound 186, 2-(2-methoxy-4-(((1-(4-methylbenzyl)-4-octyl-5-oxo-4,5-dihydro-1H-1,2,4-triazol-3-yl)methoxy)carbonyl)phenoxy)-2-methylpropanoic acid] | 1 to 50 | 51 to 200 | 51 to 200 | 51 to 200 |

The next lines start with the values.

| EC50 (Gal-4 hPPARα) [nM] | EC50 (Gal-4 hPPARγ) [nM] | EC50 (Full Length hPPARα) [nM] | EC50 (Full Length hPPARγ) [nM] | SMILES |
| --- | --- | --- | --- | --- |
| 1 to 50 | 1 to 50 | < 1 | 51 to 200 | CCCCCCCn1c(COC(=O)c2ccc(SC(C)(C)C(=O)O)cc2)nn(Cc2ccc(C(C)(C)C)cc2)c1=O [Compound 189, 2-(4-(((1-(4-tert-butylbenzyl)-4-heptyl-5-oxo-4,5-dihydro-1H-1,2,4-triazol-3-yl)methoxy)carbonyl)phenylthio)-2-methylpropanoic acid] |
| 1 to 50 | 51 to 200 | < 1 | 51 to 200 | CCCCCCn1c(COC(=O)c2ccc(SC(C)(C)C(=O)O)cc2)nn(Cc2ccc(C(C)(C)C)cc2)c1=O [Compound 187, 2-(4-(((1-(4-tert-butylbenzyl)-4-hexyl-5-oxo-4,5-dihydro-1H-1,2,4-triazol-3-yl)methoxy)carbonyl)phenylthio)-2-methylpropanoic acid] |
| 1 to 50 | 51 to 200 | < 1 | 51 to 200 | CCCCCCCn1c(COC(=O)c2ccc(SC(C)(C)C(=O)O)cc2)nn(Cc2ccc(C)cc2)c1=O [Compound 191, 2-(4-(((4-heptyl-1-(4-methylbenzyl)-5-oxo-4,5-dihydro-1H-1,2,4-triazol-3-yl)methoxy)carbonyl)phenylthio)-2-methylpropanoic acid] |
